In patent publication US5958873A, “Oral formulation for treatment of bacteria-induced diseases of the colon” (University of Cincinnati, priority 1997, dated 1999) one finds MIC50, MIC90 and MIC range data, which are given here for 3 compounds.

≈ marks a conversion by molar mass, not a printed value.

For test [1], the system named is Bacteroides fragilis. Nature of the test: In vitro MIC against clinical isolates of B. fragilis (same agar method). Type of test: cell-based. Particulars: 23 clinical isolates of B. fragilis; calculated geometrically.
Test [2] relates to C. difficile. Put plainly: In vitro MIC against clinical isolates of C. difficile (Brucella agar with sheep's blood, anaerobic). The format is cell-based, Clostridium difficile.

For the compound `CCC[C@@H]1C[C@@H](C(=O)N[C@@H]([C@H]2O[C@H](SC)[C@H](O)[C@@H](O)[C@H]2O)[C@H](C)Cl)N(C)C1` [clindamycin], in test [1], the MIC50 is listed as 55 μml and the MIC90 is given as 13 μml.

With `Cc1ncc([N+](=O)[O-])n1CCO` [metronidazole], in test [1], the MIC50 was 1.4 μml and the MIC90 is listed as 2 μml. Moreover, in test [2] (60 clinical isolates of C. difficile), the MIC range is reported as 0.25-4 μml.

In test [2], `CN[C@H](CC(C)C)C(=O)N[C@H]1C(=O)N[C@@H](CC(N)=O)C(=O)N[C@H]2C(=O)N[C@H]3C(=O)N[C@H](C(=O)N[C@H](C(=O)O)c4cc(O)cc(O)c4-c4cc3ccc4O)[C@H](O)c3ccc(c(Cl)c3)Oc3cc2cc(c3O[C@@H]2O[C@H](CO)[C@@H](O)[C@H](O)[C@H]2O[C@H]2C[C@](C)(N)[C@H](O)[C@H](C)O2)Oc2ccc(cc2Cl)[C@H]1O` [vancomycin] registered an MIC50 of 0.38 µg/mL (≈ 0.262 µM) and an MIC90 of 0.8 µg/mL (≈ 0.552 µM). Moreover, the MIC range in test [2] (in µg/mL) was 0.13-2.
